The text below walks through data of PubChem BioAssay (NCI).

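Cultured in 96-well plates, cells were exposed to test compound for 48 hours across five concentrations. TGI denotes the concentration required for complete inhibition of growth.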 Bounds are passed on as bounds.

Test systems include ACHN renal; DMS 273 small cell lung; KM20L2 colon; OVCAR-3 ovarian; RXF 393 renal; SF-539 CNS; SW-620 colon; UACC-257 melanoma; NCI/ADR-RES ovarian; T-47D breast.
Assay in all cases: NCI tumour cell line growth inhibition, 48 h

For the compound `C[N+](C)(C)CC(=O)N/N=C(\C(=O)NC1=C(Cl)C(=O)c2ccccc2C1=O)C(C#N)c1csc(-c2ccc([N+](=O)[O-])cc2)n1` (stereo not drawn), the TGI in the assay on ACHN renal, in the assay with DMS 273 small cell lung, in the assay on KM20L2 colon, in the assay on OVCAR-3 ovarian, in the assay with RXF 393 renal and with SF-539 CNS was more than 100 µM in each case. The TGI in the assay on SW-620 colon and in the assay with UACC-257 melanoma was more than 100 µM throughout.

With `CCOc1cccc2ccc[n+](CC)c12`, the TGI with ACHN renal, in the assay on DMS 273 small cell lung, with KM20L2 colon, in the assay with OVCAR-3 ovarian, with RXF 393 renal and with SF-539 CNS was more than 100 µM throughout. Moreover, the TGI in the assay on SW-620 colon and in the assay on UACC-257 melanoma was more than 100 µM in each case.

With `COC(=O)C1[C@H](c2cc(OC)c(OC)c(OC)c2)OC(=O)C1(C(=O)OC)C(=O)c1ccc2c(c1)OCO2` (stereo partly drawn), the TGI in the assay with ACHN renal, in the assay on DMS 273 small cell lung, in the assay with KM20L2 colon, with OVCAR-3 ovarian, in the assay on RXF 393 renal and in the assay with SF-539 CNS was more than 100 µM in each case. Also, the TGI in the assay with SW-620 colon and in the assay with UACC-257 melanoma was more than 100 µM throughout.

Regarding `N#C/C(=C1\SC(N=Nc2ccccc2)C(=O)N1c1ccccc1)c1nc2ccccc2[nH]1` (stereo not drawn), the TGI with ACHN renal was more than 100 µM; in the assay on DMS 273 small cell lung it was more than 100 µM; with KM20L2 colon, more than 100 µM; with OVCAR-3 ovarian, more than 100 µM; in the assay on RXF 393 renal, 97.6 µM; in the assay on SF-539 CNS, 64.4 µM. Besides, the TGI in the assay on SW-620 colon and with UACC-257 melanoma was more than 100 µM throughout.

Take `Nc1ccn(C2OC(COC(=O)C34CC5CC(CC(C5)C3)C4)C(O)C2O)c(=O)n1` (stereo not drawn): the TGI in the assay with ACHN renal, in the assay with DMS 273 small cell lung, with KM20L2 colon, in the assay on NCI/ADR-RES ovarian, with OVCAR-3 ovarian and in the assay on RXF 393 renal was more than 100 µM each time. Further, the TGI in the assay with SF-539 CNS, in the assay on SW-620 colon, with T-47D breast and in the assay on UACC-257 melanoma was more than 100 µM each time.

Take `CCc1cc(CCC(=O)Nc2c(C)cccc2C)[nH]n1`: the TGI in the assay with ACHN renal, in the assay with DMS 273 small cell lung, in the assay on KM20L2 colon, with OVCAR-3 ovarian, in the assay on RXF 393 renal and in the assay with SF-539 CNS was more than 100 µM throughout. Further, the TGI in the assay with SW-620 colon and with UACC-257 melanoma was more than 100 µM each time.

`COC(=O)C(Cc1nc2ccccc2[nH]c1=O)C(=O)C(=O)Nc1ccc([N+](=O)[O-])cc1[N+](=O)[O-]` (stereo not drawn): the TGI stood at 33.3 µM in the assay on ACHN renal; 47.5 µM in the assay with DMS 273 small cell lung; 38.3 µM with KM20L2 colon; 30.5 µM with OVCAR-3 ovarian; 36.8 µM in the assay on RXF 393 renal; 38.5 µM in the assay on SF-539 CNS. Besides, the TGI in the assay with SW-620 colon was found to be 39.6 µM; with UACC-257 melanoma, 36.9 µM.

Take `O=C1C=CC(=O)c2cc(Sc3ccccc3)c(=O)ccc21`: the TGI turned out to be 23.3 µM with ACHN renal; 35.1 µM in the assay with DMS 273 small cell lung; 38 µM with KM20L2 colon; 42.1 µM in the assay with NCI/ADR-RES ovarian; 43.2 µM with OVCAR-3 ovarian; 25 µM with RXF 393 renal. For the same compound, the TGI stood at 37 µM in the assay on SF-539 CNS, 11.7 µM in the assay on SW-620 colon, 12.5 µM in the assay with T-47D breast and 33.6 µM in the assay with UACC-257 melanoma.

For `O=c1c2cccc3cccc(c4n1CCN=4)c32`, the TGI with ACHN renal, in the assay with DMS 273 small cell lung, with KM20L2 colon, with OVCAR-3 ovarian, in the assay on RXF 393 renal and in the assay on SF-539 CNS was more than 100 µM each time. Also, the TGI in the assay on SW-620 colon and with UACC-257 melanoma was more than 100 µM each time.

Turning to `CN1C(=O)C(=O)c2cc3c(c4c2c1cc1ccccc14)OCO3`, the TGI in the assay on ACHN renal was more than 100 µM; in the assay with DMS 273 small cell lung, more than 100 µM; in the assay on KM20L2 colon it was more than 100 µM; with OVCAR-3 ovarian, more than 100 µM; in the assay with RXF 393 renal, 96.8 µM; with SF-539 CNS, more than 100 µM. The TGI with SW-620 colon and with UACC-257 melanoma was more than 100 µM in each case.

As to `O=[N+]([O-])C1Cc2ccccc2OC1c1ccccc1` (stereo not drawn), the TGI in the assay on ACHN renal was more than 100 µM; in the assay on DMS 273 small cell lung it was more than 100 µM; with KM20L2 colon, more than 100 µM; in the assay with OVCAR-3 ovarian, more than 100 µM; in the assay on RXF 393 renal, 45.8 µM; in the assay with SF-539 CNS, 89.2 µM. Besides, the TGI in the assay with SW-620 colon and in the assay with UACC-257 melanoma was more than 100 µM throughout.

On to `CC/C(CC(=O)CCC(=O)Nc1ccccc1[N+](=O)[O-])=N/NC(=O)C[n+]1ccccc1`, for which the TGI in the assay on ACHN renal, in the assay on DMS 273 small cell lung, in the assay on KM20L2 colon, in the assay with OVCAR-3 ovarian, in the assay on RXF 393 renal and in the assay with SF-539 CNS was more than 100 µM in each case. For the same compound, the TGI with SW-620 colon and in the assay with UACC-257 melanoma was more than 100 µM in each case.

Consider `CC[N+]1(C)CCC(O)(c2ccc(OC)cc2)C(C(=O)c2ccc(OC)cc2)C1` (stereo not drawn), for which the TGI is 27.2 µM with ACHN renal; 43.1 µM with DMS 273 small cell lung; 46.2 µM in the assay on KM20L2 colon; 22.1 µM in the assay with OVCAR-3 ovarian; 23.9 µM with RXF 393 renal; 32 µM in the assay with SF-539 CNS. Besides, the TGI was 4.82 µM with SW-620 colon, 33.8 µM in the assay with T-47D breast and 35.4 µM in the assay with UACC-257 melanoma.

As for `O=S1Nc2c(Cl)cc(Cl)c3c(Cl)cc(Cl)c(c23)N1`, the TGI with ACHN renal is 73.8 µM; with DMS 273 small cell lung it was more than 100 µM; in the assay with KM20L2 colon, more than 100 µM; in the assay on OVCAR-3 ovarian, 96.2 µM; with RXF 393 renal, 50.9 µM; in the assay on SF-539 CNS, more than 100 µM. For the same compound, the TGI in the assay on SW-620 colon and in the assay with UACC-257 melanoma was more than 100 µM each time.

Turning to `C/C=C/CC(C)[C@@H](O)[C@H](NC)C(=O)O` (stereo partly drawn), the TGI with ACHN renal, in the assay with DMS 273 small cell lung, in the assay with KM20L2 colon, in the assay on OVCAR-3 ovarian, in the assay with RXF 393 renal and in the assay with SF-539 CNS was more than 100 µM each time. In addition, the TGI with SW-620 colon and in the assay on UACC-257 melanoma was more than 100 µM each time.

For `O=[N+]([O-])CCc1cccc([N+](=O)[O-])c1`, the TGI with ACHN renal, in the assay with DMS 273 small cell lung, with KM20L2 colon, with OVCAR-3 ovarian, with RXF 393 renal and in the assay on SF-539 CNS was more than 100 µM throughout. Further, the TGI is 22.7 µM with SW-620 colon and more than 100 µM in the assay on UACC-257 melanoma.
